The values below come from patent US10112941B2, “Tricyclic compounds as anticancer agents” (BRISTOL-MYERS SQUIBB COMPANY, priority 2013, dated 2018).

Bounds are passed on as bounds.

In one test the target is BRD4 (Homo sapiens, UniProt O60885). Description: Time Resolved Fluorescence Resonance Energy Transfer (TR-FRET) binding assay, BRD4. To be noted: one of the FRET assays described; read-out: FRET BRD4 IC50.
The test system of test [1] is H187 Human Small Cell Carcinoma. Description: Human tumor xenograft model in mice, H187. In kind it is in vivo. To be noted: QD × 7. The source says:
(§1) All rodents were obtained from Jackson Laboratory. (Bar Harbor, Me.), and maintained in an ammonia-free environment in a defined and pathogen-free colony. All mice were quarantined approximately 1 week prior to their use for tumor propagation and drug efficacy testing. Mice were fed food and water ad libitum. The animal care program of Bristol-Myers Squibb Pharmaceutical Research Institute is fully accredited by the American Association for Accreditation of Laboratory Animal Care (AAALAC). All experiments were performed in accordance with Bristol-Myers Squibb (BMS) animal test methods and guidelines.
(§2) Tumor xenografts were grown and maintained subcutaneously (SC) in NSG (NOD scid IL2 receptor gamma chain knockout) mice (Jackson Lab). Tumors were propagated as subcutaneous transplants using tumor fragments obtained from donor mice.
(§3) The required numbers of animals needed to detect a meaningful response were pooled at the start of the experiment and each was given bilateral subcutaneous implants of two tumor fragments (˜20 mg) with a 13-gauge trocar. Tumors were allowed to grow to the pre-determined size window (tumors outside the range were excluded) and animals were evenly distributed to various treatment and control groups. There were typically 6-8 mice per treatment and control groups, consisting of 10-12 tumors. Treatment of each animal was based on individual body weight. Treated animals were checked daily for treatment related toxicity/mortality. Each group of animals was weighed before the initiation of treatment (Wt1) and then again following the last treatment dose (Wt2). The difference in body weight (Wt2−Wt1) provides a measure of treatment-related toxicity.
(§4) Tumor response was determined by measurement of tumors with a caliper twice a week, until the tumors reached a predetermined “target” size of 0.5 gm or 1 gm depending on the tumor type. Tumor weights (mg) were estimated from the formula: Tumor weight=(length×width^2)÷2
(§5) Tumor response criteria are expressed in terms of tumor growth inhibition (% TGI). Tumor growth delay is defined as the difference in time (days) required for the treated tumors (T) to reach a predetermined target size compared to those of the control group (C). For this purpose, the tumor weight of a group is expressed as medium tumor weight (MTW).
(§6) [formula] where, • Ct=Median control tumor size at end of treatment • C0=Median control tumor size at treatment initiation • Tt=Median tumor size of treated group at end of treatment • T0=Median tumor size of treated group at treatment initiation
(§7) Tumor response was also expressed in terms of tumor growth delay and expressed as log cell kill (LCK value), defined as the difference in time (days) required for the treated tumors (T) to reach a predetermined target size compared to those of the control group (C).
(§8) Whenever possible, antitumor activity was determined at a range of dose levels up to the maximum tolerated dose (MTD) which is defined as the dose level immediately […] which excessive toxicity (i.e. more than one death) occurred. When death occurred, the day of death was recorded. Treated mice dying prior to having their tumors reach target size were considered to have died from drug toxicity. No control mice died bearing tumors less than target size. Treatment groups with more than one death caused by drug toxicity were considered to have had excessively toxic treatments and their data were not included in the evaluation of a compound's antitumor efficacy.
(§9) For administration of BET inhibitors to rodents, compounds were dissolved in […]/10% TPGS/10% Ethanol. BET inhibitors were typically administered orally on a schedule of QD×7 or QD×10 (5 day-on-2 day-off), although other schedules had also been evaluated and shown to be efficacious

Test [2] deals with JJN3R multiple myeloma cell line. Put plainly: Human tumor xenograft model in mice, JJN3R. Type of test: in vivo. The conditions noted are these: QD × 7.
From the text: as §1, §2, §3, §4, §5, §6, §7, §8, §9

Regarding `Cc1nnn(C)c1-c1cnc2c3ccc(C(C)(C)O)c(F)c3n(C(c3ccccc3)C3CCOCC3)c2c1` (single isomer, unassigned) [Example 70, 2-[3-(dimethyl-1H-1,2,3-triazol-5-yl)-6-fluoro-5-[oxan-4-yl(phenyl)methyl]-5H-pyrido[3,2-b]indol-7-yl]propan-2-ol], the half-inhibitory concentration (IC50) on BRD4 was below 5 nM. For the same molecule, the “% TGI” value in test [1] (H187, 1 mg/kg) amounted to 82.0%; in test [1] (H187, 3 mg/kg), 90.0%; in test [1] (H187, 10 mg/kg) it was 96.0%. In addition, the LCK in test [1] (H187, 1 mg/kg) is listed as 0.7; in test [1] (H187, 3 mg/kg), 1.0; in test [1] (H187, 10 mg/kg), 1.6.
On to `[2H]C([2H])([2H])c1nnn(C)c1-c1cnc2c3ccc(C(C)(C)O)c(F)c3n([C@H](c3ccccc3)C3CCOCC3)c2c1` [Example 278, 2-{6-Fluoro-3-[4-(^2H3)methyl-1-methyl-1H-1,2,3-triazol-5-yl]-5-[(S)-oxan-4-yl(phenyl)methyl]-5H-pyrido[3,2-b]indol-7-yl}propan-2-ol], for which the IC50 on BRD4 was below 5 nM. Moreover, the LCK is 1 in test [2] (1 mg/kg) and above 1.4 in test [2] (4 mg/kg).
Consider `[2H]C([2H])([2H])c1nnn(C)c1-c1cnc2c3cc(F)c(C(C)(C)O)cc3n([C@H](c3ccccc3)C3CCOCC3)c2c1` [Example 279, 2-{8-Fluoro-3-[4-(^2H3)methyl-1-methyl-1H-1,2,3-triazol-5-yl]-5-[(S)-oxan-4-yl(phenyl)methyl]-5H-pyrido[3,2-b]indol-7-yl}propan-2-ol], for which the IC50 at BRD4 is below 5 nM. Also, the LCK in test [2] (1 mg/kg) is 0.6; in test [2] (4 mg/kg), above 1.4.
Consider `Cc1nnn(C)c1-c1cnc2c3ccc([C@](C)(O)C4CC4)c(F)c3n([C@H](c3ccccc3)C3CCOCC3)c2c1` [Example 432, (1R)-1-cyclopropyl-1-[3-(dimethyl-1H-1,2,3-triazol-5-yl)-6-fluoro-5-[(S)-oxan-4-yl(phenyl)methyl]-5H-pyrido[3,2-b]indol-7-yl]ethan-1-ol], for which the IC50 on BRD4 is below 5 nM. Also, the LCK in test [2] (1 mg/kg) worked out at 0.4; in test [2] (4 mg/kg), 1.4.
